Measured values: ChEMBL document CHEMBL1255238, “Induction of erm(C) expression by noninducing antibiotics” (2008)
In brackets after ≈: the same amount, converted by molar mass. Activity calls are given as the source filed them. The calls are words filed in the database; no cut-off is given here.

Columns and labels:
Escherichia coli [1] = experiment: Induction of erm(C) expression in Escherichia coli JM109 harboring Staphylococcus aureus erm(C)-containing pERMZalpha reporter plasmid at 10 mg/ml after 36 hrs at 37 degC by disc-based beta-galactosidase reporter gene assay; type: functional, organism-based
Escherichia coli [2] = experiment: Induction of erm(C) expression in Escherichia coli JM109 harboring Staphylococcus aureus erm(C)-containing pERMZ7 lacking codons 2 to 4 with additional mutations leader peptide cistrons reporter plasmid at 25 mg/ml after 36 hrs at 37 degC by disc-based beta-galactosidase reporter gene assay; type: functional, organism-based
Escherichia coli [3] = experiment: Induction of erm(C) expression in Escherichia coli JM109 harboring Staphylococcus aureus erm(C)-containing pERMZalpha reporter plasmid after 36 hrs at 37 degC by disc-based beta-galactosidase reporter gene assay; type: functional, organism-based
Escherichia coli [4] = experiment: Induction of erm(C) expression in Escherichia coli JM109 harboring Staphylococcus aureus erm(C)-containing pERMZdelta2-4 mutant leader peptide cistrons reporter plasmid at 25 mg/ml after 36 hrs at 37 degC by disc-based beta-galactosidase reporter gene assay; type: functional, organism-based
Escherichia coli [5] = experiment: Induction of erm(C) expression in Escherichia coli JM109 harboring Staphylococcus aureus erm(C)-containing pERMZalpha reporter plasmid at 1.5 mg/ml after 36 hrs at 37 degC by disc-based beta-galactosidase reporter gene assay; type: functional, organism-based
Escherichia coli [6] = experiment: Induction of erm(C) expression in Escherichia coli ZK796 harboring Staphylococcus aureus erm(C)-containing pERMCT plasmid assessed as increase in A2058 dimethylation in 23S rRNA at 25% MIC after 4 hrs by primer extension assay; type: functional, organism-based
Escherichia coli [7] = experiment: Induction of erm(C) expression in Escherichia coli JM109 harboring Staphylococcus aureus erm(C)-containing pERMZalpha reporter plasmid after 36 hrs at 25 mg/ml 37 degC by disc-based beta-galactosidase reporter gene assay; type: functional, organism-based
Escherichia coli [8] = experiment: Induction of erm(C) expression in Escherichia coli JM109 harboring Staphylococcus aureus erm(C)-containing pERMZalpha reporter plasmid at 8 mg/ml after 36 hrs at 37 degC by disc-based beta-galactosidase reporter gene assay; type: functional, organism-based
Escherichia coli [9] = experiment: Antimicrobial activity against Escherichia coli ZK796 harboring empty plasmid; type: functional
Escherichia coli [10] = experiment: Antimicrobial activity against Escherichia coli ZK796 harboring Staphylococcus aureus erm(C)-containing pERMCT plasmid; type: functional
Escherichia coli [11] = experiment: Induction of erm(C) expression in Escherichia coli ZK796 harboring Staphylococcus aureus erm(C)-containing pERMCT plasmid assessed as increase in A2058 dimethylation in 23S rRNA at 0.8 ug/ml after 30 mins by primer extension assay; type: functional, organism-based
Escherichia coli [12] = experiment: Induction of erm(C) expression in Escherichia coli JM109 harboring Staphylococcus aureus erm(C)-containing pERMZalpha reporter plasmid at 4.5 mg/ml after 36 hrs at 37 degC by disc-based beta-galactosidase reporter gene assay; type: functional, organism-based
Escherichia coli [13] = experiment: Induction of erm(C) expression in Escherichia coli ZK796 harboring Staphylococcus aureus erm(C)-containing pERMCT plasmid assessed as increase in A2058 dimethylation in 23S rRNA at 0.4 ug/ml after 4 hrs by primer extension assay; type: functional, organism-based
Escherichia coli [14] = experiment: Induction of erm(C) expression in Escherichia coli ZK796 harboring Staphylococcus aureus erm(C)-containing pERMCT plasmid assessed as increase in A2058 dimethylation in 23S rRNA at 0.4 ug/ml at 2 hrs by primer extension assay; type: functional, organism-based

Compound | Activity (Escherichia coli [1]) | Activity (Escherichia coli [2]) | Activity (Escherichia coli [4]) | Activity (Escherichia coli [6]) | other results
CC[C@H]1OC(=O)C[C@@H](O)[C@H](C)[C@@H](O[C@@H]2O[C@H](C)[C@@H](O[C@H]3C[C@@](C)(O)[C@@H](O)[C@H](C)O3)[C@H](N(C)C)[C@H]2O)[C@@H](CC=O)C[C@@H](C)C(=O)/C=C/C(C)=C/[C@@H]1CO[C@@H]1O[C@H](C)[C@@H](O)[C@@H](OC)[C@H]1OC | inactive |  |  |  | 
CC[C@H]1OC(=O)[C@@](C)(F)C(=O)[C@H](C)[C@@H](O[C@@H]2O[C@H](C)C[C@H](N(C)C)[C@H]2O)[C@](C)(OC)C[C@@H](C)C(=O)[C@H](C)[C@@H]2N(CCCCn3cnc(-c4cccnc4)c3)C(=O)O[C@@]21C |  | inactive | inactive |  | Activity (Escherichia coli [3]): Active
CC[C@H]1OC(=O)[C@H](C)C(=O)[C@H](C)[C@@H](O[C@@H]2O[C@H](C)C[C@H](N(C)C)[C@H]2O)[C@](C)(OC)C[C@@H](C)C(=O)[C@H](C)[C@@H]2N(NCCCc3ccnc4ccccc34)C(=O)O[C@@]21C |  | inactive | inactive |  | Activity (Escherichia coli [5]): Active; Activity (Escherichia coli [3]): Active
CC[C@H]1OC(=O)[C@H](C)C(=O)[C@H](C)[C@@H](O[C@@H]2O[C@H](C)C[C@H](N(C)C)[C@H]2O)[C@](C)(OC)C[C@@H](C)C(=O)[C@H](C)[C@@H]2N(NCCc3ccccc3)C(=O)O[C@@]21C |  | inactive | inactive |  | 
CC[C@H]1OC(=O)[C@H](C)[C@@H](O[C@H]2C[C@@](C)(OC)[C@@H](O)[C@H](C)O2)[C@H](C)[C@@H](O[C@@H]2O[C@H](C)C[C@H](N(C)C)[C@H]2O)[C@](C)(O)C[C@@H](C)/C(=N\OCOCCOC)[C@H](C)[C@@H](O)[C@]1(C)O |  | inactive | inactive |  | 
CC[C@H]1OC(=O)[C@H](C)[C@@H](O[C@H]2C[C@@](C)(OC)[C@@H](O)[C@H](C)O2)[C@H](C)[C@@H](O[C@@H]2O[C@H](C)C[C@H](N(C)C)[C@H]2O)[C@](C)(O)C[C@@H](C)CN(C)[C@H](C)[C@@H](O)[C@]1(C)O |  | inactive | inactive | Active | Activity (Escherichia coli [7]): inactive
CC[C@H]1OC(=O)[C@H](C)[C@@H](O[C@H]2C[C@@](C)(OC)[C@@H](O)[C@H](C)O2)[C@H](C)[C@@H](O[C@@H]2O[C@H](C)C[C@H](N(C)C)[C@H]2O)[C@](C)(OC)C[C@@H](C)C(=O)[C@H](C)[C@@H](O)[C@]1(C)O |  | inactive | inactive |  | Activity (Escherichia coli [8]): Active
CC[C@H]1OC(=O)[C@H](C)[C@@H](O[C@H]2C[C@@](C)(OC)[C@@H](O)[C@H](C)O2)[C@H](C)[C@@H](O[C@@H]2O[C@H](C)C[C@H](N(C)C)[C@H]2O)[C@](C)(OC)C[C@@H](C)C(=O)[C@H](C)[C@@H]2N(CCCCn3cnc(-c4cccnc4)c3)C(=O)O[C@@]21C | Active |  |  | Active | 
CC[C@H]1OC(=O)[C@H](C)[C@@H](O[C@H]2C[C@@](C)(OC)[C@@H](O)[C@H](C)O2)[C@H](C)[C@@H](O[C@@H]2O[C@H](C)C[C@H](N(C)C)[C@H]2O)[C@](C)(OC)C[C@@H](C)C(=O)[C@H](C)[C@@H]2N(NCCCc3ccnc4ccccc34)C(=O)O[C@@]21C | Active | inactive | inactive |  | 
CO[C@@H]1[C@@H](O[C@@H]2O[C@H](C)[C@@H](O[C@H]3C[C@@](C)(O)[C@@H](OC(=O)CC(C)C)[C@H](C)O3)[C@H](N(C)C)[C@H]2O)[C@@H](CC=O)C[C@@H](C)[C@@H](O)/C=C/C=C/C[C@@H](C)OC(=O)C[C@H]1OC(C)=O | inactive |  |  |  | 
CC[C@H]1OC(=O)[C@H](C)C(=O)[C@H](C)[C@@H](O[C@@H]2O[C@H](C)C[C@H](N(C)C)[C@H]2O)[C@](C)(OCC=Cc2cnc3ccccc3c2)C[C@@H](C)C(=O)[C@H](C)[C@H]2NC(=O)O[C@@]21C [CETHROMYCIN] |  | inactive | inactive | Active | MIC (Escherichia coli [9]): 1.5 µg/mL (≈ 1.96 µM); Activity (Escherichia coli [3]): Active; MIC (Escherichia coli [10]): 1.5 µg/mL (≈ 1.96 µM)
O=C(N[C@H](CO)[C@H](O)c1ccc([N+](=O)[O-])cc1)C(Cl)Cl [CHLORAMPHENICOL] |  |  |  |  | MIC (Escherichia coli [9]): 2 µg/mL (≈ 6.19 µM); MIC (Escherichia coli [10]): 2 µg/mL (≈ 6.19 µM)
CC[C@H]1OC(=O)[C@H](C)[C@@H](O[C@H]2C[C@@](C)(OC)[C@@H](O)[C@H](C)O2)[C@H](C)[C@@H](O[C@@H]2O[C@H](C)C[C@H](N(C)C)[C@H]2O)[C@](C)(O)C[C@@H](C)C(=O)[C@H](C)[C@@H](O)[C@]1(C)O [ERYTHROMYCIN] |  | inactive | inactive | Active | Activity (Escherichia coli [11]): Active; MIC (Escherichia coli [9]): 3 µg/mL (≈ 4.09 µM); Activity (Escherichia coli [12]): Active; MIC (Escherichia coli [10]): 25 µg/mL (≈ 34.1 µM)
CC[C@H]1OC(=O)[C@H](C)C(=O)[C@H](C)[C@@H](O[C@@H]2O[C@H](C)C[C@H](N(C)C)[C@H]2O)[C@](C)(OC)C[C@@H](C)C(=O)[C@H](C)[C@H]2N(CCCCn3cnc(-c4cccnc4)c3)C(=O)O[C@]12C [TELITHROMYCIN] |  | inactive | inactive | Active | Activity (Escherichia coli [5]): Active; MIC (Escherichia coli [9]): 1.5 µg/mL (≈ 1.85 µM); Activity (Escherichia coli [3]): Active; Activity (Escherichia coli [13]): Active; Activity (Escherichia coli [14]): inactive; MIC (Escherichia coli [10]): 1.5 µg/mL (≈ 1.85 µM)
SPIRAMYCIN | inactive |  |  |  | 
